Measured values from patent publication US20260130395A1, “Water Dispersible Botanical Compositions” (Aquila Black Limited, priority 2021, published 2026).

Tests used:
[1] = Stability of cannabinoid compounds and Vitamin E components in Beverage 2 (AB Red) by LCMSMS; format: physicochemical
[2] = Stability of cannabinoid entourage and Vitamin E components of the powder concentrate by LCMSMS; format: physicochemical; conditions: powder stored at 21-25° C.
Experimental: At each time period, 0.05 g of powder was dissolved in 10 ml-15 of ethanol, diluted to fall within the analytical range, and injected into the LCMSMS for analysis.

SMILES: Cc1c(C)c2c(c(C)c1O)CC[C@@](C)(CCC[C@H](C)CCC[C@H](C)CCCC(C)C)O2 [α-Tocopherol]
- Stability of Vitamin Es in AB Red ([1]; stored at 8° C., 0 days): 25.3 µg/mL
- Stability of Vitamin Es in AB Red ([1]; stored at 8° C., 1 days): 25.2 µg/mL
- Stability of Vitamin Es in AB Red ([1]; stored at 8° C., 2 days): 24.9 µg/mL
- Stability of Vitamin Es in AB Red ([1]; stored at 8° C., 3 days): 25.3 µg/mL
- Stability of Vitamin Es in AB Red ([1]; stored at 8° C., 5 days): 24.2 µg/mL
- Stability of Vitamin Es in AB Red ([1]; stored at 8° C., 8 days): 23.7 µg/mL
- Stability of Vitamin Es in AB Red ([1]; stored at 8° C., 9 days): 24.6 µg/mL
- Stability of Vitamin Es in AB Red ([1]; stored at 8° C., 10 days): 24.9 µg/mL
- Stability of Vitamin Es in AB Red ([1]; stored at 8° C., 11 days): 23.9 µg/mL
- Stability of Vitamin Es in AB Red ([1]; stored at 8° C., 12 days): 24.4 µg/mL
- Stability of Vitamin Es in AB Red ([1]; stored at 8° C., 15 days): 25.6 µg/mL
- Stability of Vitamin Es in AB Red ([1]; stored at 8° C., 16 days): 24.5 µg/mL
- Stability of Vitamin Es in AB Red ([1]; stored at 8° C., 17 days): 23.6 µg/mL
- Stability of Vitamin Es in AB Red ([1]; stored at 8° C., 18 days): 24.1 µg/mL
- Stability of Vitamin Es in AB Red ([1]; stored at 8° C., 19 days): 24.0 µg/mL
- Stability of Vitamin Es in AB Red ([1]; stored at 8° C., 22 days): 25.0 µg/mL
- Stability of Vitamin Es in AB Red ([1]; stored at 8° C., 23 days): 23.2 µg/mL
- Stability of Vitamin Es in AB Red ([1]; stored at 8° C., 24 days): 24.3 µg/mL
- Stability of Vitamin Es in AB Red ([1]; stored at 8° C., 25 days): 23.6 µg/mL
- Stability of Vitamin Es in AB Red ([1]; stored at 8° C., 26 days): 25.2 µg/mL
- Stability of Vitamin Es in AB Red ([1]; stored at 8° C., 29 days): 23.5 µg/mL
- Stability of Vitamin Es in AB Red ([1]; stored at 8° C., 30 days): 24.2 µg/mL
- Stability of Vitamin Es in AB Red ([1]; stored at 8° C., 60 days): 24.2 µg/mL
- Stability of Vitamin Es in AB Red ([1]; stored at 8° C., 90 days): 23.1 µg/mL
- Stability of Vitamin Es in AB Red ([1]; stored at 8° C., 120 days): 25.2 µg/mL
- Stability of Vitamin Es in AB Red ([1]; stored at 8° C., 150 days): 25.4 µg/mL
- Stability of Vitamin Es in AB Red ([1]; stored at 8° C., 180 days): 23.6 µg/mL
- Stability of Vitamin Es in AB Red ([1]; stored at 8° C., 210 days): 23.5 µg/mL
- Stability of Vitamin Es in AB Red ([1]; stored at 8° C., 240 days): 23.6 µg/mL
- Stability of Vitamin Es in AB Red ([1]; stored at 8° C., 270 days): 23.6 µg/mL
- Stability of Vitamin Es in AB Red ([1]; stored at 8° C., 300 days): 23.1 µg/mL
- Stability of Vitamin Es in AB Red ([1]; stored at 8° C., 330 days): 22.9 µg/mL
- Stability of Vitamin Es in AB Red ([1]; stored at 8° C., 360 days): 22.4 µg/mL
- Stability of Vitamin Es in AB Red ([1]; stored at 8° C., 390 days): 23.1 µg/mL
- Stability of Vitamin Es in AB Red ([1]; stored at 8° C., 420 days): 22.3 µg/mL
- Stability of Vitamin Es in AB Red ([1]; stored at 8° C., 450 days): 22.7 µg/mL
- Stability of Vitamin Es in AB Red ([1]; stored at 8° C., 480 days): 21.8 µg/mL
- Stability of Vitamin Es in AB Red ([1]; stored at 8° C., 510 days): 22.0 µg/mL
- Stability of Vitamin Es in AB Red ([1]; stored at 8° C., 540 days): 21.8 µg/mL
- Stability of Vitamin Es in AB Red ([1]; stored at 8° C., 570 days): 21.5 µg/mL
- Stability of Vitamin Es in AB Red ([1]; stored at 21-25° C., 0 days): 25.3 µg/mL
- Stability of Vitamin Es in AB Red ([1]; stored at 21-25° C., 1 days): 24.4 µg/mL
- Stability of Vitamin Es in AB Red ([1]; stored at 21-25° C., 2 days): 24.1 µg/mL
- Stability of Vitamin Es in AB Red ([1]; stored at 21-25° C., 3 days): 23.8 µg/mL
- Stability of Vitamin Es in AB Red ([1]; stored at 21-25° C., 5 days): 22.9 µg/mL
- Stability of Vitamin Es in AB Red ([1]; stored at 21-25° C., 8 days): 24.5 µg/mL
- Stability of Vitamin Es in AB Red ([1]; stored at 21-25° C., 9 days): 23.3 µg/mL
- Stability of Vitamin Es in AB Red ([1]; stored at 21-25° C., 10 days): 23.0 µg/mL
- Stability of Vitamin Es in AB Red ([1]; stored at 21-25° C., 11 days): 24.4 µg/mL
- Stability of Vitamin Es in AB Red ([1]; stored at 21-25° C., 12 days): 23.4 µg/mL
- Stability of Vitamin Es in AB Red ([1]; stored at 21-25° C., 15 days): 24.8 µg/mL
- Stability of Vitamin Es in AB Red ([1]; stored at 21-25° C., 16 days): 25.1 µg/mL
- Stability of Vitamin Es in AB Red ([1]; stored at 21-25° C., 17 days): 24.4 µg/mL
- Stability of Vitamin Es in AB Red ([1]; stored at 21-25° C., 18 days): 24.9 µg/mL
- Stability of Vitamin Es in AB Red ([1]; stored at 21-25° C., 19 days): 25.4 µg/mL
- Stability of Vitamin Es in AB Red ([1]; stored at 21-25° C., 22 days): 25.4 µg/mL
- Stability of Vitamin Es in AB Red ([1]; stored at 21-25° C., 23 days): 24.6 µg/mL
- Stability of Vitamin Es in AB Red ([1]; stored at 21-25° C., 24 days): 23.5 µg/mL
- Stability of Vitamin Es in AB Red ([1]; stored at 21-25° C., 25 days): 25.5 µg/mL
- Stability of Vitamin Es in AB Red ([1]; stored at 21-25° C., 26 days): 24.3 µg/mL
- Stability of Vitamin Es in AB Red ([1]; stored at 21-25° C., 29 days): 24.4 µg/mL
- Stability of Vitamin Es in AB Red ([1]; stored at 21-25° C., 30 days): 24.6 µg/mL
- Stability of Vitamin Es in AB Red ([1]; stored at 21-25° C., 60 days): 24.4 µg/mL
- Stability of Vitamin Es in AB Red ([1]; stored at 21-25° C., 90 days): 24.3 µg/mL
- Stability of Vitamin Es in AB Red ([1]; stored at 21-25° C., 120 days): 23.7 µg/mL
- Stability of Vitamin Es in AB Red ([1]; stored at 21-25° C., 150 days): 23.4 µg/mL
- Stability of Vitamin Es in AB Red ([1]; stored at 21-25° C., 180 days): 23.3 µg/mL
- Stability of Vitamin Es in AB Red ([1]; stored at 21-25° C., 210 days): 22.7 µg/mL
- Stability of Vitamin Es in AB Red ([1]; stored at 21-25° C., 240 days): 23.1 µg/mL
- Stability of Vitamin Es in AB Red ([1]; stored at 21-25° C., 270 days): 23.1 µg/mL
- Stability of Vitamin Es in AB Red ([1]; stored at 21-25° C., 300 days): 23.5 µg/mL
- Stability of Vitamin Es in AB Red ([1]; stored at 21-25° C., 330 days): 22.6 µg/mL
- Stability of Vitamin Es in AB Red ([1]; stored at 21-25° C., 360 days): 21.9 µg/mL
- Stability of Vitamin Es in AB Red ([1]; stored at 21-25° C., 390 days): 22.7 µg/mL
- Stability of Vitamin Es in AB Red ([1]; stored at 21-25° C., 420 days): 22.5 µg/mL
- Stability of Vitamin Es in AB Red ([1]; stored at 21-25° C., 450 days): 22.3 µg/mL
- Stability of Vitamin Es in AB Red ([1]; stored at 21-25° C., 480 days): 21.6 µg/mL
- Stability of Vitamin Es in AB Red ([1]; stored at 21-25° C., 510 days): 21.4 µg/mL
- Stability of Vitamin Es in AB Red ([1]; stored at 21-25° C., 540 days): 21.0 µg/mL
- Stability of Vitamin Es in AB Red ([1]; stored at 21-25° C., 570 days): 21.4 µg/mL
- Stability of Vitamin Es in Powder Concentrate ([2]; 0 days): 4.85 mg/g powder
- Stability of Vitamin Es in Powder Concentrate ([2]; 1 days): 4.89 mg/g powder
- Stability of Vitamin Es in Powder Concentrate ([2]; 2 days): 4.79 mg/g powder
- Stability of Vitamin Es in Powder Concentrate ([2]; 3 days): 4.69 mg/g powder
- Stability of Vitamin Es in Powder Concentrate ([2]; 5 days): 4.99 mg/g powder
- Stability of Vitamin Es in Powder Concentrate ([2]; 8 days): 4.69 mg/g powder
- Stability of Vitamin Es in Powder Concentrate ([2]; 9 days): 4.75 mg/g powder
- Stability of Vitamin Es in Powder Concentrate ([2]; 10 days): 4.77 mg/g powder
- Stability of Vitamin Es in Powder Concentrate ([2]; 11 days): 5.04 mg/g powder
- Stability of Vitamin Es in Powder Concentrate ([2]; 12 days): 5.01 mg/g powder
- Stability of Vitamin Es in Powder Concentrate ([2]; 15 days): 5.07 mg/g powder
- Stability of Vitamin Es in Powder Concentrate ([2]; 16 days): 4.96 mg/g powder
- Stability of Vitamin Es in Powder Concentrate ([2]; 17 days): 4.94 mg/g powder
- Stability of Vitamin Es in Powder Concentrate ([2]; 18 days): 4.77 mg/g powder
- Stability of Vitamin Es in Powder Concentrate ([2]; 19 days): 5.04 mg/g powder
- Stability of Vitamin Es in Powder Concentrate ([2]; 22 days): 4.94 mg/g powder
- Stability of Vitamin Es in Powder Concentrate ([2]; 23 days): 4.91 mg/g powder
- Stability of Vitamin Es in Powder Concentrate ([2]; 24 days): 5.00 mg/g powder
- Stability of Vitamin Es in Powder Concentrate ([2]; 25 days): 5.06 mg/g powder
- Stability of Vitamin Es in Powder Concentrate ([2]; 26 days): 4.84 mg/g powder
- Stability of Vitamin Es in Powder Concentrate ([2]; 29 days): 4.85 mg/g powder
- Stability of Vitamin Es in Powder Concentrate ([2]; 30 days): 4.83 mg/g powder
- Stability of Vitamin Es in Powder Concentrate ([2]; 60 days): 4.91 mg/g powder
- Stability of Vitamin Es in Powder Concentrate ([2]; 90 days): 4.96 mg/g powder
- Stability of Vitamin Es in Powder Concentrate ([2]; 120 days): 4.93 mg/g powder
- Stability of Vitamin Es in Powder Concentrate ([2]; 150 days): 4.69 mg/g powder
- Stability of Vitamin Es in Powder Concentrate ([2]; 180 days): 4.70 mg/g powder
- Stability of Vitamin Es in Powder Concentrate ([2]; 210 days): 4.84 mg/g powder
- Stability of Vitamin Es in Powder Concentrate ([2]; 240 days): 5.03 mg/g powder
- Stability of Vitamin Es in Powder Concentrate ([2]; 270 days): 4.78 mg/g powder
- Stability of Vitamin Es in Powder Concentrate ([2]; 300 days): 4.81 mg/g powder
- Stability of Vitamin Es in Powder Concentrate ([2]; 330 days): 4.81 mg/g powder
- Stability of Vitamin Es in Powder Concentrate ([2]; 360 days): 4.83 mg/g powder
- Stability of Vitamin Es in Powder Concentrate ([2]; 390 days): 4.91 mg/g powder
- Stability of Vitamin Es in Powder Concentrate ([2]; 420 days): 4.69 mg/g powder
- Stability of Vitamin Es in Powder Concentrate ([2]; 450 days): 5.00 mg/g powder
- Stability of Vitamin Es in Powder Concentrate ([2]; 480 days): 4.98 mg/g powder
- Stability of Vitamin Es in Powder Concentrate ([2]; 510 days): 5.02 mg/g powder
- Stability of Vitamin Es in Powder Concentrate ([2]; 540 days): 5.03 mg/g powder
- Stability of Vitamin Es in Powder Concentrate ([2]; 570 days): 4.72 mg/g powder
